Reference: ChEMBL document CHEMBL3045199, “Synthesis of some (E)-6-[2-(furan-2-yl)ethenyl]-1,2,4-triazin-5-ones and their biological evaluation as antitumor agents” (2013)

Columns and labels:
Type in all cases: functional
HOP-92 = test: Cytotoxicity against Homo sapiens (human) HOP92 cells assessed as growth inhibition at 10 uM after 24 hr; details: HOP-92, 24 h, read-out: GI
OVCAR-8 = test: Cytotoxicity against Homo sapiens (human) OVCAR8 cells assessed as growth inhibition at 10 uM after 24 hr; details: OVCAR-8, 24 h, read-out: GI
EKVX = test: Cytotoxicity against Homo sapiens (human) EKVX cells assessed as growth inhibition at 10 uM after 24 hr; details: read-out: GI
UACC-257 = test: Cytotoxicity against Homo sapiens (human) UACC257 cells assessed as growth inhibition at 10 uM after 24 hr; details: UACC-257, 24 h, read-out: GI
HCC 2998 = test: Cytotoxicity against Homo sapiens (human) HCC2998 cells assessed as growth inhibition at 10 uM after 24 hr; details: HCC 2998, 24 h, read-out: GI
NCI-H322M = test: Cytotoxicity against Homo sapiens (human) NCI-H322M cells assessed as growth inhibition at 10 uM after 24 hr; details: read-out: GI
MOLT-4 = test: Cytotoxicity against Homo sapiens (human) MOLT4 cells assessed as growth inhibition at 10 uM after 24 hr; details: MOLT-4, 24 h, read-out: GI
[1] = Cytotoxicity against Homo sapiens (human) non-small cell lung cancer cells after 48 hr by SRB assay; details: Cancer cell lines
[2] = Cytotoxicity against Homo sapiens (human) breast cancer cells after 48 hr by SRB assay; details: Cancer cell lines
LOX IMVI = test: Cytotoxicity against Homo sapiens (human) LOXIMVI cells assessed as growth inhibition at 10 uM after 24 hr; details: read-out: GI
OVCAR-3 = test: Cytotoxicity against Homo sapiens (human) OVCAR3 cells assessed as growth inhibition at 10 uM after 24 hr; details: OVCAR-3, 24 h, read-out: GI
T47D = test: Cytotoxicity against Homo sapiens (human) T47D cells assessed as growth inhibition at 10 uM after 24 hr; details: read-out: GI
A549 = test: Cytotoxicity against Homo sapiens (human) A549/ATCC cells assessed as growth inhibition at 10 uM after 24 hr; details: A549, 24 h, read-out: GI
[3] = read-out: LC50 (the source's name)

## Nc1cc(-c2ccc(Cl)cc2)nn1-c1nc(=O)c(/C=C/c2ccco2)n[nH]1
HOP-92
  inhibition of growth at 10 µM: 39.7%
OVCAR-8
  inhibition of growth at 10 µM: 75.2%
EKVX
  inhibition of growth at 10 µM: 58.3%
UACC-257
  inhibition of growth at 10 µM: 30.4%
HCC 2998
  inhibition of growth at 10 µM: 51.5%
NCI-H322M
  inhibition of growth at 10 µM: 75.6%
MOLT-4
  inhibition of growth at 10 µM: 55.6%
[1]
  GI50: 4.47 µM
  TGI: 41.1 µM
[1]; [3]
  CC50: > 100 µM
[2]
  GI50: 6.39 µM
  TGI: 48.1 µM
[2]; [3]
  CC50: > 100 µM
LOX IMVI
  inhibition of growth at 10 µM: 50.1%
OVCAR-3
  inhibition of growth at 10 µM: 62.1%
T47D
  inhibition of growth at 10 µM: 37.3%
A549
  inhibition of growth at 10 µM: 62.7%
